Experimental data from publication PMC3290907 (Evidence-based Complementary and Alternative Medicine : eCAM, 2012).

Target: T1, PDE4 (homogenate of guinea pig lungs or hearts)
T1 construct: gene PDE4A; native enzyme activity in lung or heart homogenate; subtype not resolved; other PDE families may be present
Assay: [3H]-cAMP hydrolysis, two-step radioassay, Lineweaver-Burk
Type: biochemical, Cavia porcellus
Details: cAMP substrate; 3 mM MgCl2; pH 7.4; 37°C; competitive; lung or heart homogenate

COc1ccc([C@@H]2CC(=O)c3c(O)cc(O)cc3O2)cc1O [hesperetin, 5,7,3′-trihydroxy-4′-methoxyflavanone]
Ki: 45.6 ± 2.3 µM
